B1: oncostatin M (protein, UniProt P13725 26-221, looked up)
Oncostatin-M: AAIGSCSKEYRVLLGQLQKQTDLMQDTSRLLDPYIRIQGLDVPKLREHCRERPGAFPSEETLRGLGRRGFLQTLNATLGCVLHRLADLEQRLPKAQDLERSGLNIEDLEKLQMARPNILGLRNNIYCMAQLLDNSDTAEPTKAGRGASQPPTPTPASDAFQRKLEGCRFLHGYHRFMHSVGRVFSKWGESPNRSRR

Key:
[1] = tested on: eIF4E phosphorylation at Serine 209 in HEK 293 cells; test: eIF4E phosphorylation in HEK 293 cells (phospho-specific antibody, fluorescent plate reader); format: cell-based; details: Homo sapiens, HEK293; eIF4E phosphorylation at Serine 209, 2 hours exposure; read-out: HEK 293 cell;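 also: Well-level p-eIF4E immunofluorescence normalized to DAPI signal, expressed as percent eIF4E phosphorylation, with IC50 derived from concentration-response curves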
[2] = target: T1, recombinant full length human kinase MNK2 (Homo sapiens, UniProt Q9HBH9); test: MNK2 radiometric kinase activity assay; format: biochemical; details: radiometric activity assay; read-out: MNK2
T1 construct: the recombinant full length human kinase MNK2; made in house; host or cells: insect cells
T1 sequence (Q9HBH9 whole entry): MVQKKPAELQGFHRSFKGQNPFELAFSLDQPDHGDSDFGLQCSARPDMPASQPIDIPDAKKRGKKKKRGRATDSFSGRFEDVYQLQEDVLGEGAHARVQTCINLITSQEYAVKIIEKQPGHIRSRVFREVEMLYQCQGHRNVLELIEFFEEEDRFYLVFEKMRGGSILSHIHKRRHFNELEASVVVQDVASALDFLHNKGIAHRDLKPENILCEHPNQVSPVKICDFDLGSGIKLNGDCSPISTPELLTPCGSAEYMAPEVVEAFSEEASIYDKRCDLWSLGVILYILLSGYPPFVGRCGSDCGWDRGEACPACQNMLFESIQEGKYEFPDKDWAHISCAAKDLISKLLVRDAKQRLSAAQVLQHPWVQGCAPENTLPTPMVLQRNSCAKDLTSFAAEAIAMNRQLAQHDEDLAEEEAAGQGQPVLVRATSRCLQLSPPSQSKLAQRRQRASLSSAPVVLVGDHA

P-gp (human MDR1, ABCB1) [3] = test: MDCK-MDR1 permeability (blood-brain barrier permeability); details: dog
[4] = target: T2, recombinant full-length human kinase MNK1 (Homo sapiens, UniProt Q9BUB5); test: MNK1 radiometric kinase activity assay; format: biochemical; details: radiometric activity assay; read-out: MNK1
T2 construct: the recombinant full-length human kinase MNK1; made in house; host or cells: insect cells
T2 sequence (Q9BUB5 whole entry): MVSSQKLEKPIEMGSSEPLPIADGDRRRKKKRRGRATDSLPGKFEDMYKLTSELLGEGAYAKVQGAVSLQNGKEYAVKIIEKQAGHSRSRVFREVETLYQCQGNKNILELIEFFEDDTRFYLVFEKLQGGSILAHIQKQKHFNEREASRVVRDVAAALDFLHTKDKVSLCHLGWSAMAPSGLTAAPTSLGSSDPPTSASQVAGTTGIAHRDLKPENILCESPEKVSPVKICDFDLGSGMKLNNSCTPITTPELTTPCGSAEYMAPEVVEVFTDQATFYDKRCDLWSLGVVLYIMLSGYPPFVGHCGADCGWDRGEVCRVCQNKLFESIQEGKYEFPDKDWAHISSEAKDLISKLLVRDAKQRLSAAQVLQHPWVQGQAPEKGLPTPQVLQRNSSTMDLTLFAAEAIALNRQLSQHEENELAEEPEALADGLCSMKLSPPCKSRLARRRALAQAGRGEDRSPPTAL

[5] = tested on: IL-6 evoked grimace in ICR mice; test: IL-6 evoked grimace test; format: in vivo; details: PO 1 hr prior to IL-6 (4ET-03-053: 10 mg/kg)
Method: Male and female Institute for Cancer Research (ICR) mice were used in these experiments. Mice were bred in house at University of Texas at Dallas and used at between 12 and 24 weeks of age. Mice were habituated to plexiglass boxes of approximately 4×6 inches in size with openable tops. Habituation took place over 2 days with animals exposed to the boxes for at least 30 min. A blinded observer scored baseline grimacing using the method previously described by Mogil and colleagues (Langford D J, et al. “Coding of facial expressions of pain in the laboratory mouse” Nat Methods 7:447-449 (2010)). On test day, mice were given test compounds 1 hr prior to injection of interleukin 6 (human recombinant IL-6, R&D Systems) which was given at a dose of 0.1 ng in saline via an intraplantar injection as described previously (Moy J K, et al. “The MNK-eIF4E Signaling Axis Contributes to Injury-Induced Nociceptive Plasticity and the Development of Chronic Pain” J Neurosci. 37:7481-7499 (2017)). Test compounds were given orally (PO) via a flexible oral gavage canula built for mice. 4ET-03-053 is efficacious in the IL-6 evoked grimace test in mice (PO; 10 mg/kg).
Effect sizes were calculated per mouse by subtracting the baseline grimace score from the sum of the grimace scores for 1 and 3 hr time points.

[6] = Liver microsome stability; details: mouse, liver microsomes
P-gp (human MDR1, ABCB1) [7] = test: in vitro; details: dog, MDCK-MDR1
Wistar rats = test: Intravenous self-administration with oxycodone and saline regimen; format: in vivo; details: Wistar rats; for Mean Difference, Šídák's multiple comparisons test: numbers of infusions
Method: Ten male and eleven female Wistar rats (Charles River, Hollister, CA) were used in this study. Rats were housed in groups of 2-3 per cage prior to surgery, and then individually housed to protect their catheters, in a temperature-controlled (22° C.) vivarium on a 12/12h light/dark cycle (lights off at 8:00 AM) with ad libitum access to food and water. The rats acclimated to the animal facility for at least 7 days before surgery. All procedures adhered to the National Institutes of Health Guide for the Care and Use of Laboratory Animals and were approved by the Institutional Animal Care and Use Committee of The Scripps Research Institute.
For surgery, rats were anesthetized with 2 to 3% isoflurane. They were implanted with a silastic catheter (0.3 mm i.d.×0.64 mm o.d.; Dow Corning Co. Midland, MI) into the right external jugular vein under aseptic conditions. The distal end of the catheter was subcutaneously threaded to the back of the rat where it exited via a metal guide cannula (22G; Plastics One Inc., Roanoke, VA) that was anchored at the back of the rat and closed with a small plastic cap and metal cover cap to keep the inside part of the catheter clean and protected (Caine S B, et al. “Effects of dopamine D-1 and D-2 antagonists on cocaine self-administration under different schedules of reinforcement in the rat” J Pharmacol Exp Ther. 270(1):209-18 (1994); Wee S, et al. “Effects of dose and session duration on cocaine self-administration in rats” J Pharmacol Exp Ther. 320(3):1134-43 (2007); Zorrilla E P, et al. “Extended access cocaine self-administration differentially activates dorsal raphe and amygdala corticotropin-releasing factor systems in rats” Addict Biol. 17(2):300-8 (2012); Valtcheva M V, et al. “Surgical extraction of human dorsal root ganglia from organ donors and preparation of primary sensory neuron cultures” Nat Protoc. 11:1877-1888 (2016)). All incisions were closed using veterinary tissue adhesive. After surgery, rats were given analgesic (Flunixin, 2.5 mg/kg s.c.).
Rats were allowed 5-7 days for recovery prior to self-administration.
The patency of catheters in the rats was tested using an ultra-short-acting barbiturate methohexital sodium (Brevital, Eli Lilly, Indianapolis, 1N, 10 mg/mL, 2 mg/rat) every 10-12 days during the study. Generally, a total loss of muscle tone within 3 s after a methohexital sodium injection indicates the patency of a catheter. Any animal that failed the test was excluded from the study.
During experimental sessions, each rat was placed in a standard operant chamber, which was placed in a light- and sound-attenuating cubicle (28×26×20 cm; Med Associates Inc., St. Albans, VT). The front door and the back wall of the chamber were made of transparent plastic, and the other walls were opaque metal. The chamber had two retractable response levers mounted on one side of the opaque walls. A stimulus light was mounted above each lever. A drug injection was delivered by a syringe pump (Razel Scientific Instruments, Georgia, VT) located on top of the cubicle. Experimental sessions were controlled and recorded by a PC computer with custom interface and software in the experimental room.
Experimental sessions were conducted once a day, 5-7 days a week during the dark (active) cycle. After being flushed with 0.9% saline, a rat's indwelling catheter was connected to a tube that exited the chamber through a metal spring and a swivel and was connected to a syringe pump. After the drug delivery system was connected to the rat, the chamber was closed, and the 2 hr session was started immediately. The start of a session was signaled by the presentation of two response levers into the chamber. […] During an injection, stimulus lights above both levers were illuminated and lasted throughout a time-out period (20 s) that followed each injection. Pressing the left lever was counted but had no other programmed consequences. […]

[8] = tested on: eIF4E phosphorylation in hDRGs; test: p-eIF4E immunofluorescence in cultured human dorsal root ganglion cells (hDRGs); format: cell-based; details: OSM 10 and 50 ng/ml, 30 min
Method: For all human DRG experiments, DRGs were recovered from organ donors at the Southwest Transplant Alliance under an IRB approved protocol at University of Texas at Dallas. DRGs were recovered within 3 hrs of cross clamp. DRGs were recovered and taken back to the University of Texas lab where they were cultured using the protocol described previously. Cultures were grown on glass coverslips for microscopy. Coverslips were coated with poly-D-lysine and laminin to improve neuronal adherence to the coverslips. Cultures of human DRG neurons were grown for 4-7 days prior to treatment with OSM. OSM treatment was done in culture media for a period of 30 min. Cells were stained with antibodies using the same protocol as described above for HEK293 cells. Imaging was done on an Olympus FV1200 microscope and image analysis was done with CellSens software. Statistical analysis was done with Graphpad Prism V8.
Human DRG recovery and other experimental protocols were the same as described herein.

Row | Molecule | IC50 [1] [nM] | IC50 [2] [nM] | Papp A→B at 5 uM (P-gp (human MDR1, ABCB1) [3]) [×10⁻⁶ cm/s] | Papp B→A at 5 uM (P-gp (human MDR1, ABCB1) [3]) [×10⁻⁶ cm/s] | efflux ratio at 5 uM (P-gp (human MDR1, ABCB1) [3]) | IC50 [4] [nM] | efficacy in the IL-6 evoked grimace test [5] | half-life [6] [h] | Papp A→B (P-gp (human MDR1, ABCB1) [7]) [×10⁻⁶ cm/s] | Papp B→A (P-gp (human MDR1, ABCB1) [7]) [×10⁻⁶ cm/s] | numbers of infusions, multiple comparisons test: oxycodone and subsequent saline (Wistar rats; 0.15 mg/kg oxycodone, both times this occurred) | Mean Difference, Šídák's multiple comparisons test (Wistar rats; 0.15 mg/kg oxycodone vs. saline (3rd comparison, first occurrence)) | Mean Difference, Šídák's multiple comparisons test (Wistar rats; 0.15 mg/kg oxycodone vs. saline (6th comparison, second occurrence)) | phosphorylation of eIF4E in hDRGs (stimulus) [8]
1 | Cc1cc(Nc2cc(N)ncn2)c(=O)n2c1C(=O)NC21CCCC2(CC2)CC1 (racemic) [rac-4ET-01-027, 6″-((6-Aminopyrimidin-4-yl)amino)-8″-methyl-2″H-dispiro[cyclopropane-1,1′-cycloheptane-4′,3″-imidazo[1,5-a]pyridine]-1″,5″-dione] | 12.6 | 1.6 | 52.9 | 62.1 | 1.2 | 35.2 | efficacious | 1.11 | – | – | – | – | – | –
2 | Cc1cc(Nc2cc(N)ncn2)c(=O)n2c1C(=O)NC21C=CC2(CC2)CC1 (stereo not shown) [4ET-01-051, 6″-((6-Aminopyrimidin-4-yl)amino)-8″-methyl-2″H-dispiro[cyclopropane-1,1′-cyclohexane-4′,3″-imidazo[1,5-a]pyridin]-2′-ene-1″,5″-dione] | 7.3 | 3.1 | 22.7 | 52.4 | 2.3 | 58.6 | efficacious | 13.9 | – | – | – | – | – | –
3 | Cc1cc(Nc2cc(NC(=O)C3CC3)ncn2)c(=O)n2c1C(=O)NC21CC2(CCC2)C1 [4ET-03-043, N-(6-((8″-methyl-1″,5″-dioxo-1″,5″-dihydro-2″H-dispiro[cyclobutane-1,1′-cyclobutane-3′,3″-imidazo[1,5-a]pyridin]-6″-yl)amino)pyrimidin-4-yl)cyclopropanecarboxamide] | 0.9 | 1.7 | 27.4 | 56.3 | 2.1 | 44.9 | – | 3.35 | – | – | – | – | – | –
4 | Cc1cc(Nc2cc(NC(=O)C3CC3)ncn2)c(=O)n2c1C(=O)NC21CCC2(CC1)CNC2 [4ET-03-049, N-(6-((8″-methyl-1″,5″-dioxo-1″,5″-dihydro-2″H-dispiro[azetidine-3,1′-cyclohexane-4′,3″-imidazo1[1,5-a]pyridin]-6″-yl)amino)pyrimidin-4-yl)cyclopropanecarboxamide] | 110 | 2.8 | 0.3 | 0.7 | 2.1 | 80 | – | 2.43 | – | – | – | – | – | –
5 | Cc1cc(Nc2cc(NC(=O)[C@H]3[C@@H]4CNC[C@@H]43)ncn2)c(=O)n2c1C(=O)NC21CCC2(CC2)CC1 [4ET-03-056, (1R,5S,6r)-N-(6-((8″-methyl-1″,5″-dioxo-1″,5″-dihydro-2″H-dispiro[cyclopropane-1,1′-cyclohexane-4′,3″-imidazo[1,5-a]pyridin]-638-yl)amino)pyrimidin-4-yl)-3-azabicyclo[3.1.0]hexane-6-carboxamide] | 11.1 | 3.5 | 0.5 | 15.9 | 31.8 | 51.8 | – | 2.95 | – | – | – | – | – | –
6 | Cc1cc(Nc2cc(NC(=O)C3CC4(CNC4)C3)ncn2)c(=O)n2c1C(=O)NC21CCC2(CC2)CC1 [4ET-03-057, N-(6-((8″-methyl-1″,5″-dioxo-1″,5″-dihydro-2″H-dispiro[cyclopropane-1,1′-cyclohexane-4′,3″-imidazo[1,5-a]pyridin]-638-yl)amino)pyrimidin-4-yl)-2-azaspiro[3.3]heptane-6-carboxamide] | 8.7 | 3.4 | – | – | – | 61.6 | – | 3.65 | 0.3 | 1.1 | – | – | – | –
7 | Cc1cc(Nc2cc(N)ncn2)c(=O)n2c1C(=O)NC21CCC2(CC1)CC2(F)F (stereo not shown) [4ET-03-068, 6″-((6-aminopyrimidin-4-yl)amino)-2,2-difluoro-8″-methyl-2″H-dispiro[cyclopropane-1,1′-cyclohexane-4′,3″-imidazo[1,5-a]pyridine]-1″,5″-dione] | 3.4 | 1.5 | 18.7 | 71 | 3.8 | 25.3 | – | 4.93 | – | – | – | – | – | –
8 | Cc1cc(Nc2cc(NCCO)ncn2)c(=O)n2c1C(=O)NC21CCC2(CC2)CC1 [4ET-03-074, 6″-((6-((2-hydroxyethyl)amino)pyrimidin-4-yl)amino)-8″-methyl-2″H-dispiro[cyclopropane-1,1′-cyclohexane-4′,3″-imidazo[1,5-a]pyridine]-1″,5″-dione] | 11.3 | 3.1 | 7.6 | 58.1 | 7.6 | 45.9 | – | 1.87 | – | – | – | – | – | –
9 | COc1ccc2c3c1O[C@H]1C(=O)CC[C@@]4(O)[C@@H](C2)N(C)CC[C@]314 [oxycodone, oxycondone, reference compound] | – | – | – | – | – | – | – | – | – | – | significant differences | 6.547 | 9.006 | –
10 | B1 | – | – | – | – | – | – | – | – | – | – | – | – | – | increased phosphorylation of eIF4E
